From patent US20160044927A1, “Disinfectant Formulation Comprising Calcium Hydroxide and Sodium Hypochlorite” (priority 2012, published 2016)
Where two headings read alike, the source gives them in different places.

Assays:
Aspergillus niger(#9642) = details: 24 hr, very spotty growth, not yet a confluence lawn, other replicates patchy lawn
HSV-1 = details: for Log TCID50/100 ul: preliminary
Experimental: Experiments: 10 μL of virus stock was mixed with 100% saturated Ca(OH)2 (Final Ca(OH)2 concentration 99%) and incubated for different lengths of time. Then the mixture was diluted and the viable number of virus (Log TCID) was measured.
99% saturated Ca(OH)2 was used to treat 2 viruses using different incubation times (5 min to 1 hr).

## [Ca+2].[OH-].[OH-] [Ca(OH)2 paste, calcium hydroxide]
Aspergillus niger(#9642); paste volume 0.2 ml
  Zone of Inhibition: —, ~35≠, — mm
Aspergillus niger(#9642); paste volume 0.3 ml
  Zone of Inhibition: —, ~34≠, — mm

## [Ca+2].[OH-].[OH-] [99% saturated Ca(OH)2, calcium hydroxide]
HSV-1; HSV-1, in 1 hr
  log kill: > 3.5 log
HSV-1; HSV-1, incubation 0 min
  Log TCID50/100 ul: 6.5 Log TCID50/100 ul
HSV-1; HSV-1, incubation 5 min
  Log TCID50/100 ul: 6 Log TCID50/100 ul
HSV-1; HSV-1, incubation 10 min
  Log TCID50/100 ul: 5.5 Log TCID50/100 ul
HSV-1; HSV-1, incubation 15 min
  Log TCID50/100 ul: 3.5 Log TCID50/100 ul
HSV-1; HSV-1, incubation 30 min
  Log TCID50/100 ul: 3 Log TCID50/100 ul
HSV-1; HSV-1, incubation 60 min
  Log TCID50/100 ul: <3 Log TCID50/100 ul
